Laboratory results from ChEMBL document CHEMBL3137667, “[Drug-induced liver injury; fourteenth updated edition of the bibliographic database of liver injuries and related drugs]” (Gastroenterol Clin Biol, 2004).

Assays:
[1] = Highest frequency of moderate liver toxicity observed during clinical trials, expressed as a percentage. [column '% BIOL' in source]; conditions: human
[2] = Highest frequency of acute liver toxicity observed during clinical trials, expressed as a percentage. [column '% AIGUE' in source]; conditions: human
[3] = human, serum
[4] = human, serum; remark: listed apart in the source
[5] = human
[6] = human; remark: listed apart in the source
[7] = human; remark: listed apart in the source
[8] = human, serum, 4383 h
[9] = human; remark: listed apart in the source
[10] = human; remark: listed apart in the source
[11] = human; remark: listed apart in the source
[12] = human; remark: listed apart in the source
[13] = human; remark: listed apart in the source
[14] = human; remark: listed apart in the source
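Throughout, for Hepatotoxicity (association with vascular disease): count of indexed literature references reporting vascular liver injury in humans, e.g. peliosis hepatitis, hepatic veno-occlusive disease or Budd-Chiari syndrome.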
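Throughout, for Hepatotoxicity (benign tumour): value is a count of indexed literature references citing a benign tumour confirmed by histopathology.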
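Throughout, for Hepatotoxicity (choleostasis): human cholestatic liver injury, shown by histopathology or by peak ALT or AST elevation over alkaline phosphatase ratio below 2, value counts indexed literature reports.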
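Throughout, for Hepatotoxicity (chronic liver disease): chronic liver injury confirmed by histopathology or persistently raised serum aminotransferase activity beyond 6 months, value given as the count of indexed literature references.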
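Throughout, for Hepatotoxicity (cirrhosis): value is a count of indexed literature references reporting cirrhosis confirmed by histopathology.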
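Throughout, for Hepatotoxicity (cytolytic): human cytolytic liver injury, shown by histopathology or by a ratio above 5 of peak ALT or AST elevation to alkaline phosphatase elevation, value counts indexed references.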
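Throughout, for Hepatotoxicity (granulomatous hepatitis): value is a count of indexed literature references reporting granulomatous liver disease confirmed by histopathology.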
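Throughout, for Hepatotoxicity (malignant tumour): malignant tumour confirmed by histopathology, value gives the count of indexed literature references reporting it.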
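Throughout, for Hepatotoxicity (severe hepatitis): human clinical data: severe hepatitis, meaning potentially life-threatening liver failure or clinically observed cases, the value counts how many indexed literature references report it.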
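Throughout, for Hepatotoxicity (steatosis): steatosis confirmed by histopathology, value is the count of indexed references.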

C[C@@H]1C[C@H](C)CN(S(=O)(=O)c2ccc(Cl)c(C(=O)O)c2)C1 [TIBRIC ACID]
Hepatotoxicity (moderate) [1]: 0% | Hepatotoxicity (acute) [2]: 0% | Hepatotoxicity (moderate) [3]: 1 | Hepatotoxicity (acute) [4]: 0 | Hepatotoxicity (cytolytic) [5]: 0 | Hepatotoxicity (choleostasis) [6]: 0 | Hepatotoxicity (severe hepatitis) [7]: 0 | Hepatotoxicity (chronic liver disease) [8]: 0 | Hepatotoxicity (cirrhosis) [9]: 0 | Hepatotoxicity (granulomatous hepatitis) [10]: 0 | Hepatotoxicity (association with vascular disease) [11]: 0 | Hepatotoxicity (steatosis) [12]: 0 | Hepatotoxicity (malignant tumour) [13]: 0 | Hepatotoxicity (benign tumour) [14]: 0

COC(=O)C1=C(C)NC(C)=C(C(=O)OC(C)C)C1c1cccc2nonc12 (stereo not given) [ISRADIPINE]
Hepatotoxicity (moderate) [1]: 8.3% | Hepatotoxicity (acute) [2]: 0% | Hepatotoxicity (moderate) [3]: 6 | Hepatotoxicity (acute) [4]: 0 | Hepatotoxicity (cytolytic) [5]: 0 | Hepatotoxicity (choleostasis) [6]: 0 | Hepatotoxicity (severe hepatitis) [7]: 0 | Hepatotoxicity (chronic liver disease) [8]: 0 | Hepatotoxicity (cirrhosis) [9]: 0 | Hepatotoxicity (granulomatous hepatitis) [10]: 0 | Hepatotoxicity (association with vascular disease) [11]: 0 | Hepatotoxicity (steatosis) [12]: 0 | Hepatotoxicity (malignant tumour) [13]: 0 | Hepatotoxicity (benign tumour) [14]: 0

CC[C@H](C)C[C@H](C)CCCCCCCCC(=O)N[C@H]1C[C@@H](O)[C@@H](NCCN)NC(=O)[C@@H]2[C@@H](O)CCN2C(=O)[C@H]([C@H](O)CCN)NC(=O)[C@H]([C@H](O)[C@@H](O)c2ccc(O)cc2)NC(=O)[C@@H]2C[C@@H](O)CN2C(=O)[C@H]([C@@H](C)O)NC1=O [CASPOFUNGIN]
Hepatotoxicity (moderate) [1]: 8.4% | Hepatotoxicity (acute) [2]: 0% | Hepatotoxicity (moderate) [3]: 3 | Hepatotoxicity (acute) [4]: 1 | Hepatotoxicity (cytolytic) [5]: 0 | Hepatotoxicity (choleostasis) [6]: 0 | Hepatotoxicity (severe hepatitis) [7]: 0 | Hepatotoxicity (chronic liver disease) [8]: 0 | Hepatotoxicity (cirrhosis) [9]: 0 | Hepatotoxicity (granulomatous hepatitis) [10]: 0 | Hepatotoxicity (association with vascular disease) [11]: 0 | Hepatotoxicity (steatosis) [12]: 0 | Hepatotoxicity (malignant tumour) [13]: 0 | Hepatotoxicity (benign tumour) [14]: 0

CCCN1C[C@H](CSC)C[C@@H]2c3cccc4[nH]cc(c34)C[C@H]21 [PERGOLIDE]
Hepatotoxicity (moderate) [1]: 1.9% | Hepatotoxicity (acute) [2]: 0% | Hepatotoxicity (moderate) [3]: 3 | Hepatotoxicity (acute) [4]: 0 | Hepatotoxicity (cytolytic) [5]: 0 | Hepatotoxicity (choleostasis) [6]: 0 | Hepatotoxicity (severe hepatitis) [7]: 0 | Hepatotoxicity (chronic liver disease) [8]: 0 | Hepatotoxicity (cirrhosis) [9]: 0 | Hepatotoxicity (granulomatous hepatitis) [10]: 0 | Hepatotoxicity (association with vascular disease) [11]: 0 | Hepatotoxicity (steatosis) [12]: 0 | Hepatotoxicity (malignant tumour) [13]: 0 | Hepatotoxicity (benign tumour) [14]: 0

O=C(O)C[C@H](O)C[C@H](O)/C=C/c1c(C2CC2)nc2ccccc2c1-c1ccc(F)cc1 [PITAVASTATIN]
Hepatotoxicity (moderate) ([1]; Liver): 1.7% | Hepatotoxicity (acute) ([2]; Liver): 0% | Hepatotoxicity (moderate) [3]: 1 | Hepatotoxicity (acute) [4]: 0 | Hepatotoxicity (cytolytic) [5]: 0 | Hepatotoxicity (choleostasis) [6]: 0 | Hepatotoxicity (severe hepatitis) ([7]; Liver): 0 | Hepatotoxicity (chronic liver disease) [8]: 0 | Hepatotoxicity (cirrhosis) [9]: 0 | Hepatotoxicity (granulomatous hepatitis) [10]: 0 | Hepatotoxicity (association with vascular disease) [11]: 0 | Hepatotoxicity (steatosis) [12]: 0 | Hepatotoxicity (malignant tumour) [13]: 0 | Hepatotoxicity (benign tumour) [14]: 0

Fc1ccc(C(c2ccc(F)cc2)N2CCN(C/C=C/c3ccccc3)CC2)cc1 [FLUNARIZINE]
Hepatotoxicity (moderate) [1]: 1.4% | Hepatotoxicity (acute) [2]: 0% | Hepatotoxicity (moderate) [3]: 1 | Hepatotoxicity (acute) [4]: 0 | Hepatotoxicity (cytolytic) [5]: 0 | Hepatotoxicity (choleostasis) [6]: 0 | Hepatotoxicity (severe hepatitis) [7]: 0 | Hepatotoxicity (chronic liver disease) [8]: 0 | Hepatotoxicity (cirrhosis) [9]: 0 | Hepatotoxicity (granulomatous hepatitis) [10]: 0 | Hepatotoxicity (association with vascular disease) [11]: 0 | Hepatotoxicity (steatosis) [12]: 0 | Hepatotoxicity (malignant tumour) [13]: 0 | Hepatotoxicity (benign tumour) [14]: 0

CN(Cc1cc(Br)cc(Br)c1N)C1CCCCC1 [BROMHEXINE]
Hepatotoxicity (moderate) [1]: 0% | Hepatotoxicity (acute) [2]: 0% | Hepatotoxicity (moderate) [3]: 1 | Hepatotoxicity (acute) [4]: 0 | Hepatotoxicity (cytolytic) [5]: 0 | Hepatotoxicity (choleostasis) [6]: 0 | Hepatotoxicity (severe hepatitis) [7]: 0 | Hepatotoxicity (chronic liver disease) [8]: 0 | Hepatotoxicity (cirrhosis) [9]: 0 | Hepatotoxicity (granulomatous hepatitis) [10]: 0 | Hepatotoxicity (association with vascular disease) [11]: 0 | Hepatotoxicity (steatosis) [12]: 0 | Hepatotoxicity (malignant tumour) [13]: 0 | Hepatotoxicity (benign tumour) [14]: 0

Clc1ccc(COC(Cn2ccnc2)c2ccc(Cl)cc2Cl)c(Cl)c1 (stereo not given) [MICONAZOLE]
Hepatotoxicity (moderate) [1]: 0% | Hepatotoxicity (acute) [2]: 0% | Hepatotoxicity (moderate) [3]: 2 | Hepatotoxicity (acute) [4]: 0 | Hepatotoxicity (cytolytic) [5]: 0 | Hepatotoxicity (choleostasis) [6]: 0 | Hepatotoxicity (severe hepatitis) [7]: 0 | Hepatotoxicity (chronic liver disease) [8]: 0 | Hepatotoxicity (cirrhosis) [9]: 0 | Hepatotoxicity (granulomatous hepatitis) [10]: 0 | Hepatotoxicity (association with vascular disease) [11]: 0 | Hepatotoxicity (steatosis) [12]: 0 | Hepatotoxicity (malignant tumour) [13]: 0 | Hepatotoxicity (benign tumour) [14]: 0

CN(C)CCc1c[nH]c2ccc(C[C@H]3COC(=O)N3)cc12 [ZOLMITRIPTAN]
Hepatotoxicity (moderate) [1]: 0% | Hepatotoxicity (acute) [2]: 0% | Hepatotoxicity (moderate) [3]: 1 | Hepatotoxicity (acute) [4]: 0 | Hepatotoxicity (cytolytic) [5]: 0 | Hepatotoxicity (choleostasis) [6]: 0 | Hepatotoxicity (severe hepatitis) [7]: 0 | Hepatotoxicity (chronic liver disease) [8]: 0 | Hepatotoxicity (cirrhosis) [9]: 0 | Hepatotoxicity (granulomatous hepatitis) [10]: 0 | Hepatotoxicity (association with vascular disease) [11]: 0 | Hepatotoxicity (steatosis) [12]: 0 | Hepatotoxicity (malignant tumour) [13]: 0 | Hepatotoxicity (benign tumour) [14]: 0

CCCCC(C)(O)C/C=C/[C@H]1[C@H](O)CC(=O)[C@@H]1CCCCCCC(=O)OC (stereo not given in full) [MISOPROSTOL]
Hepatotoxicity (moderate) [1]: 16.7% | Hepatotoxicity (acute) [2]: 0% | Hepatotoxicity (moderate) [3]: 6 | Hepatotoxicity (acute) [4]: 0 | Hepatotoxicity (cytolytic) [5]: 0 | Hepatotoxicity (choleostasis) [6]: 0 | Hepatotoxicity (severe hepatitis) [7]: 0 | Hepatotoxicity (chronic liver disease) [8]: 0 | Hepatotoxicity (cirrhosis) [9]: 0 | Hepatotoxicity (granulomatous hepatitis) [10]: 0 | Hepatotoxicity (association with vascular disease) [11]: 0 | Hepatotoxicity (steatosis) [12]: 0 | Hepatotoxicity (malignant tumour) [13]: 0 | Hepatotoxicity (benign tumour) [14]: 0

CC(OC(=O)OC1CCCCC1)OC(=O)C1=C(CSc2nnnn2CCN(C)C)CS[C@@H]2[C@H](NC(=O)Cc3csc(N)n3)C(=O)N12 (stereo not given in full)
Hepatotoxicity (moderate) [1]: 28.6% | Hepatotoxicity (acute) [2]: 0% | Hepatotoxicity (moderate) [3]: 25 | Hepatotoxicity (acute) [4]: 0 | Hepatotoxicity (cytolytic) [5]: 0 | Hepatotoxicity (choleostasis) [6]: 0 | Hepatotoxicity (severe hepatitis) [7]: 0 | Hepatotoxicity (chronic liver disease) [8]: 0 | Hepatotoxicity (cirrhosis) [9]: 0 | Hepatotoxicity (granulomatous hepatitis) [10]: 0 | Hepatotoxicity (association with vascular disease) [11]: 0 | Hepatotoxicity (steatosis) [12]: 0 | Hepatotoxicity (malignant tumour) [13]: 0 | Hepatotoxicity (benign tumour) [14]: 0

CC(C)c1nc(N(C)S(C)(=O)=O)nc(-c2ccc(F)cc2)c1/C=C/[C@@H](O)C[C@@H](O)CC(=O)O [ROSUVASTATIN]
Hepatotoxicity (moderate) [1]: 0% | Hepatotoxicity (acute) [2]: 0.1% | Hepatotoxicity (moderate) [3]: 0 | Hepatotoxicity (acute) [4]: 1 | Hepatotoxicity (cytolytic) [5]: 1 | Hepatotoxicity (choleostasis) [6]: 0 | Hepatotoxicity (severe hepatitis) [7]: 0 | Hepatotoxicity (chronic liver disease) [8]: 0 | Hepatotoxicity (cirrhosis) [9]: 0 | Hepatotoxicity (granulomatous hepatitis) [10]: 0 | Hepatotoxicity (association with vascular disease) [11]: 0 | Hepatotoxicity (steatosis) [12]: 0 | Hepatotoxicity (malignant tumour) [13]: 0 | Hepatotoxicity (benign tumour) [14]: 0

CO/N=C(\C(=O)N[C@@H]1C(=O)N2C(C(=O)[O-])=C(C[n+]3ccn4ncccc43)CS[C@H]12)c1nsc(N)n1 [CEFOZOPRAN]
Hepatotoxicity (moderate) [1]: 50% | Hepatotoxicity (acute) [2]: 0% | Hepatotoxicity (moderate) [3]: 68 | Hepatotoxicity (acute) [4]: 0 | Hepatotoxicity (cytolytic) [5]: 0 | Hepatotoxicity (choleostasis) [6]: 0 | Hepatotoxicity (severe hepatitis) [7]: 0 | Hepatotoxicity (chronic liver disease) [8]: 0 | Hepatotoxicity (cirrhosis) [9]: 0 | Hepatotoxicity (granulomatous hepatitis) [10]: 0 | Hepatotoxicity (association with vascular disease) [11]: 0 | Hepatotoxicity (steatosis) [12]: 0 | Hepatotoxicity (malignant tumour) [13]: 0 | Hepatotoxicity (benign tumour) [14]: 0

COc1cc2nc(N3CCN(C(=O)c4ccco4)CC3)nc(N)c2cc1OC [PRAZOSIN]
Hepatotoxicity (moderate) ([1]; Liver): 0% | Hepatotoxicity (acute) ([2]; Liver): 0.2% | Hepatotoxicity (moderate) [3]: 0 | Hepatotoxicity (acute) [4]: 1 | Hepatotoxicity (cytolytic) [5]: 0 | Hepatotoxicity (choleostasis) [6]: 1 | Hepatotoxicity (severe hepatitis) ([7]; Liver): 0 | Hepatotoxicity (chronic liver disease) [8]: 0 | Hepatotoxicity (cirrhosis) [9]: 0 | Hepatotoxicity (granulomatous hepatitis) [10]: 0 | Hepatotoxicity (association with vascular disease) [11]: 0 | Hepatotoxicity (steatosis) [12]: 0 | Hepatotoxicity (malignant tumour) [13]: 0 | Hepatotoxicity (benign tumour) [14]: 0

OC(CCN1CCCCC1)(c1ccccc1)C1CCCCC1 (stereo not given) [TRIHEXYPHENIDYL]
Hepatotoxicity (moderate) ([1]; Liver): 0% | Hepatotoxicity (acute) ([2]; Liver): 0% | Hepatotoxicity (moderate) [3]: 0 | Hepatotoxicity (acute) [4]: 1 | Hepatotoxicity (cytolytic) ([5]; Liver): 1 | Hepatotoxicity (choleostasis) ([6]; Liver): 0 | Hepatotoxicity (severe hepatitis) ([7]; Liver): 1 | Hepatotoxicity (chronic liver disease) [8]: 0 | Hepatotoxicity (cirrhosis) [9]: 0 | Hepatotoxicity (granulomatous hepatitis) ([10]; Liver): 0 | Hepatotoxicity (association with vascular disease) [11]: 0 | Hepatotoxicity (steatosis) [12]: 0 | Hepatotoxicity (malignant tumour) [13]: 0 | Hepatotoxicity (benign tumour) [14]: 0
